Assay results reported in PubChem BioAssay (NCI).
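These data come from cells grown in 96-well plates and exposed to compound for 48 hours at five concentrations. TGI marks complete inhibition of growth.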

Legend:
Assay in all cases: NCI-60 cell line screen, 48 h
SK-MEL-2 melanoma = test system: SK-MEL-2 melanoma
OVCAR-4 ovarian = test system: OVCAR-4 ovarian
HOP-62 NSCLC = test system: HOP-62 NSCLC
SNB-19 CNS = test system: SNB-19 CNS
LOX IMVI melanoma = test system: LOX IMVI melanoma
MCF7 breast = test system: MCF7 breast
ACHN renal = test system: ACHN renal
HOP-92 NSCLC = test system: HOP-92 NSCLC
KM12 colon = test system: KM12 colon
MDA-N = test system: MDA-N
A498 renal = test system: A498 renal
UO-31 renal = test system: UO-31 renal
SK-MEL-5 melanoma = test system: SK-MEL-5 melanoma
M14 melanoma = test system: M14 melanoma
786-0 renal = test system: 786-0 renal
RXF 393 renal = test system: RXF 393 renal
HCT-15 colon = test system: HCT-15 colon
HCT-116 colon = test system: HCT-116 colon
SN12C renal = test system: SN12C renal
PC-3 prostate = test system: PC-3 prostate
MDA-MB-231 breast = test system: MDA-MB-231 breast
SK-MEL-28 melanoma = test system: SK-MEL-28 melanoma
UACC-62 melanoma = test system: UACC-62 melanoma
OVCAR-3 ovarian = test system: OVCAR-3 ovarian
NCI-H23 lung = test system: NCI-H23 lung
NCI-H226 lung = test system: NCI-H226 lung
OVCAR-8 ovarian = test system: OVCAR-8 ovarian
RPMI-8226 leukemia = test system: RPMI-8226 leukemia
TK-10 renal = test system: TK-10 renal
SK-OV-3 ovarian = test system: SK-OV-3 ovarian
CAKI-1 renal = test system: CAKI-1 renal
IGROV1 ovarian = test system: IGROV1 ovarian
SW-620 colon = test system: SW-620 colon
UACC-257 melanoma = test system: UACC-257 melanoma
MDA-MB-435 = test system: MDA-MB-435
SNB-75 CNS = test system: SNB-75 CNS
MOLT-4 leukemia = test system: MOLT-4 leukemia
NCI-H522 lung = test system: NCI-H522 lung
COLO 205 colon = test system: COLO 205 colon
HCC-2998 colon = test system: HCC-2998 colon
NCI/ADR-RES ovarian = test system: NCI/ADR-RES ovarian
CCRF-CEM leukemia = test system: CCRF-CEM leukemia
A549 NSCLC = test system: A549 NSCLC
BT-549 breast = test system: BT-549 breast
HL-60(TB) leukemia = test system: HL-60(TB) leukemia
NCI-H460 lung = test system: NCI-H460 lung
SF-295 CNS = test system: SF-295 CNS
U251 CNS = test system: U251 CNS
DU-145 prostate = test system: DU-145 prostate
SF-539 CNS = test system: SF-539 CNS
K-562 leukemia = test system: K-562 leukemia
HT29 colon = test system: HT29 colon
T-47D breast = test system: T-47D breast
EKVX NSCLC = test system: EKVX NSCLC
MALME-3M melanoma = test system: MALME-3M melanoma
SR leukemia = test system: SR leukemia
OVCAR-5 ovarian = test system: OVCAR-5 ovarian
HS 578T breast = test system: HS 578T breast
SF-268 CNS = test system: SF-268 CNS

## COc1cc(/C=C2\C(=O)N(c3ccc(NC(C)=O)cc3)C(c3ccccc3)S2(=O)=O)cc(OC)c1OC (stereo not given)
SK-MEL-2 melanoma
  TGI: > 100 µM
OVCAR-4 ovarian
  TGI: > 100 µM
HOP-62 NSCLC
  TGI: > 100 µM
SNB-19 CNS
  TGI: > 100 µM
LOX IMVI melanoma
  TGI: > 100 µM
MCF7 breast
  TGI: > 100 µM
ACHN renal
  TGI: > 100 µM
HOP-92 NSCLC
  TGI: > 100 µM
KM12 colon
  TGI: > 100 µM
MDA-N
  TGI: > 100 µM
A498 renal
  TGI: > 100 µM
UO-31 renal
  TGI: > 100 µM
SK-MEL-5 melanoma
  TGI: > 100 µM
M14 melanoma
  TGI: > 100 µM
786-0 renal
  TGI: > 100 µM
RXF 393 renal
  TGI: > 100 µM
HCT-15 colon
  TGI: > 100 µM
HCT-116 colon
  TGI: > 100 µM
SN12C renal
  TGI: > 100 µM
PC-3 prostate
  TGI: > 100 µM
MDA-MB-231 breast
  TGI: > 100 µM
SK-MEL-28 melanoma
  TGI: > 100 µM
UACC-62 melanoma
  TGI: > 100 µM
OVCAR-3 ovarian
  TGI: > 100 µM
NCI-H23 lung
  TGI: > 100 µM
NCI-H226 lung
  TGI: > 100 µM
OVCAR-8 ovarian
  TGI: > 100 µM
RPMI-8226 leukemia
  TGI: > 100 µM
TK-10 renal
  TGI: > 100 µM
SK-OV-3 ovarian
  TGI: > 100 µM
CAKI-1 renal
  TGI: > 100 µM
IGROV1 ovarian
  TGI: > 100 µM
SW-620 colon
  TGI: > 100 µM
UACC-257 melanoma
  TGI: > 100 µM
MDA-MB-435
  TGI: > 100 µM
SNB-75 CNS
  TGI: > 100 µM
MOLT-4 leukemia
  TGI: > 100 µM
NCI-H522 lung
  TGI: > 100 µM
COLO 205 colon
  TGI: > 100 µM
HCC-2998 colon
  TGI: > 100 µM
NCI/ADR-RES ovarian
  TGI: > 100 µM
CCRF-CEM leukemia
  TGI: > 100 µM
A549 NSCLC
  TGI: > 100 µM
BT-549 breast
  TGI: > 100 µM
HL-60(TB) leukemia
  TGI: 79.1 µM
NCI-H460 lung
  TGI: > 100 µM
SF-295 CNS
  TGI: > 100 µM
U251 CNS
  TGI: > 100 µM
DU-145 prostate
  TGI: > 100 µM
SF-539 CNS
  TGI: > 100 µM
K-562 leukemia
  TGI: > 100 µM
HT29 colon
  TGI: > 100 µM
T-47D breast
  TGI: > 100 µM
EKVX NSCLC
  TGI: > 100 µM
MALME-3M melanoma
  TGI: > 100 µM
SR leukemia
  TGI: > 100 µM
OVCAR-5 ovarian
  TGI: > 100 µM

## O=C1CC2(CCNCC2)C(=O)N1N1CCCCC1
SK-MEL-2 melanoma
  TGI: > 100 µM
OVCAR-4 ovarian
  TGI: > 100 µM
HOP-62 NSCLC
  TGI: > 100 µM
SNB-19 CNS
  TGI: > 100 µM
HS 578T breast
  TGI: > 100 µM
LOX IMVI melanoma
  TGI: > 100 µM
MCF7 breast
  TGI: > 100 µM
ACHN renal
  TGI: > 100 µM
HOP-92 NSCLC
  TGI: > 100 µM
KM12 colon
  TGI: > 100 µM
MDA-N
  TGI: > 100 µM
A498 renal
  TGI: > 100 µM
UO-31 renal
  TGI: > 100 µM
SK-MEL-5 melanoma
  TGI: > 100 µM
M14 melanoma
  TGI: > 100 µM
786-0 renal
  TGI: > 100 µM
RXF 393 renal
  TGI: > 100 µM
HCT-15 colon
  TGI: > 100 µM
HCT-116 colon
  TGI: > 100 µM
SN12C renal
  TGI: > 100 µM
PC-3 prostate
  TGI: > 100 µM
MDA-MB-231 breast
  TGI: > 100 µM
SK-MEL-28 melanoma
  TGI: > 100 µM
UACC-62 melanoma
  TGI: > 100 µM
OVCAR-3 ovarian
  TGI: > 100 µM
NCI-H23 lung
  TGI: > 100 µM
NCI-H226 lung
  TGI: > 100 µM
OVCAR-8 ovarian
  TGI: > 100 µM
RPMI-8226 leukemia
  TGI: > 100 µM
TK-10 renal
  TGI: > 100 µM
SK-OV-3 ovarian
  TGI: > 100 µM
CAKI-1 renal
  TGI: > 100 µM
IGROV1 ovarian
  TGI: > 100 µM
SW-620 colon
  TGI: > 100 µM
UACC-257 melanoma
  TGI: > 100 µM
SF-268 CNS
  TGI: > 100 µM
SNB-75 CNS
  TGI: > 100 µM
MOLT-4 leukemia
  TGI: > 100 µM
NCI-H522 lung
  TGI: > 100 µM
COLO 205 colon
  TGI: > 100 µM
HCC-2998 colon
  TGI: > 100 µM
NCI/ADR-RES ovarian
  TGI: > 100 µM
CCRF-CEM leukemia
  TGI: > 100 µM
A549 NSCLC
  TGI: > 100 µM
BT-549 breast
  TGI: > 100 µM
HL-60(TB) leukemia
  TGI: > 100 µM
NCI-H460 lung
  TGI: > 100 µM
SF-295 CNS
  TGI: > 100 µM
U251 CNS
  TGI: > 100 µM
DU-145 prostate
  TGI: > 100 µM
SF-539 CNS
  TGI: > 100 µM
K-562 leukemia
  TGI: > 100 µM
HT29 colon
  TGI: > 100 µM
T-47D breast
  TGI: > 100 µM
EKVX NSCLC
  TGI: > 100 µM
MALME-3M melanoma
  TGI: > 100 µM
SR leukemia
  TGI: > 100 µM
OVCAR-5 ovarian
  TGI: > 100 µM
